Results reported in BindingDB's records for patent US20250313563 (The Broad Institute, 2025).
Values joined by “and” are separate entries in the source; they are usually repeats but may differ in a detail not shown here. Equal entries are not always repeated.

Key:
[1] = biological target: Glycogen synthase kinase-3 beta (Homo sapiens, UniProt P49841); assay: TR-FRET Assay
Procedure, shortened: (§1)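 Kinase activity, measured after a 30-minute compound preincubation, was stopped with EDTA and quantified by TR-FRET using a Tb-labelled pSer641 antibody paired with streptavidin-d2.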

[2] = biological target: Glycogen synthase kinase-3 alpha (Homo sapiens, UniProt P49840); assay: TR-FRET Assay
Procedure, shortened: as §1

Chain of Glycogen synthase kinase-3 beta (P49841 whole entry): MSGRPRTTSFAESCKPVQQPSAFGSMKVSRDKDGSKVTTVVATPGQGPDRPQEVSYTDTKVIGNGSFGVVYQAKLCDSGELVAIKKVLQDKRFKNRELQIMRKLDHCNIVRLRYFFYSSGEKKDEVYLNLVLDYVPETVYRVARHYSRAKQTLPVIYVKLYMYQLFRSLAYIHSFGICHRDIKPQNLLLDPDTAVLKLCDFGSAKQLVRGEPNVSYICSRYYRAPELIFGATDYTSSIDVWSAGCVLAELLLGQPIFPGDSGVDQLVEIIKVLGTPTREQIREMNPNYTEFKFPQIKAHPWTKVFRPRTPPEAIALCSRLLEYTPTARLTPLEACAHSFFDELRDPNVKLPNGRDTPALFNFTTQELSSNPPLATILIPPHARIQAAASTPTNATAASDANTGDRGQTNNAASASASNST
Chain of Glycogen synthase kinase-3 alpha (P49840 whole entry): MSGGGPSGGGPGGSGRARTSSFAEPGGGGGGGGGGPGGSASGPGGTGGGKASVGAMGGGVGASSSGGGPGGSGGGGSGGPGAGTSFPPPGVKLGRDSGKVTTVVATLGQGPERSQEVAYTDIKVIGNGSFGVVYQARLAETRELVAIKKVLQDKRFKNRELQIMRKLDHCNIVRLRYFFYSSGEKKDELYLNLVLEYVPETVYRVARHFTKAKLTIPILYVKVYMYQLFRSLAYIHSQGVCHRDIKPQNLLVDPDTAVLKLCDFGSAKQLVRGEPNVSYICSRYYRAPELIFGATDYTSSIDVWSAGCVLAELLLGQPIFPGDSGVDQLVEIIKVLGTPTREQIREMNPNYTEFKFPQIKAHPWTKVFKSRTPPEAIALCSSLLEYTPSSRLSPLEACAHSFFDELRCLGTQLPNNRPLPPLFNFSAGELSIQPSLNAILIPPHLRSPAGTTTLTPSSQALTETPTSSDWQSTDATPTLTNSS

SMILES	IC50 [1]	IC50 [2]
CC1(C)CC(=O)C2=C(C1)NC1=C(CN=N1)C21COC2(CN(C(=O)c3ccccc3)C2)C1 (configuration not stated) [US20250313563, Compound 917231]	< 100 nM	< 100 nM
CC[C@]1(c2cccc(N3CCC3(C)C)c2)C2=CN=NC2NC2=C1C(=O)CC(C)(C)C2 (some centres not stated) [US20250313563, Compound 913140]	100 to 1000 nM	< 100 nM
CCC1(c2cccc(S(=O)(=O)C3CCCCC3)c2)C2=CN=NC2NC2=C1C(=O)CC(C)(C)C2 (configuration not stated) [US20250313563, Compound 918273]	< 100 nM	< 100 nM
CC[C@]1(c2cccc(C3=CNN4CC=CN=C34)c2)C2=CN=NC2NC2=C1C(=O)NC(C)(C)C2 (some centres not stated) [US20250313563, Compound 949389]	> 5000 nM	1000 to 5000 nM
CC[C@]1(c2cccc(Cc3ncccc3C(F)(F)F)c2)C2=CN=NC2NC2=C1C(=O)CC(C)(C)C2 (some centres not stated) [US20250313563, Compound 947664]	100 to 1000 nM	< 100 nM
CC[C@]1(c2cccc(-c3ccncc3)c2)C2=CN=NC2NC2=C1C(=O)CC(C)(C)C2 (some centres not stated) [US20250313563, Compound 801412]	> 5000 nM	> 5000 nM
CC1(C)CC(=O)C2=C(C1)NC1N=NC=C1C21CCCN(S(=O)(=O)c2ccccc2)CC1 (configuration not stated) [US20250313563, Compound 889578]	< 100 nM	< 100 nM
CC[C@@]1(c2ccccc2)C2=CN=NC2NC2=C1C(=O)C[C@]1(CCOC1)C2 (some centres not stated) [US20250313563, Compound 816881]	1000 to 5000 nM	100 to 1000 nM
CC(C)C1CC(C(=O)N2CC3(C2)CC2(CO3)C3=C(N=NC3)NC3=C2C(=O)CC(C)(C)C3)C1 (configuration not stated) [US20250313563, Compound 947273]	< 100 nM	< 100 nM
CC1(C)CC(=O)C2=C(C1)NC1=C(CN=N1)[C@]21CCN(S(=O)(=O)c2cccc(F)c2)C1 [US20250313563, Compound 943488]	< 100 nM	< 100 nM
CC[C@]1(c2cccc(C(F)(F)F)c2)C2=CN=NC2NC2=C1C(=O)N(c1cnsc1)CC2 (some centres not stated) [US20250313563, Compound 951733]	100 to 1000 nM	< 100 nM
CC(C)(C)CC1N=NC2=C1[C@](C)(c1cccc(S(=O)(=O)C(F)(F)F)c1)C1=C(CC(C)(C)CC1=O)N2 (some centres not stated) [US20250313563, Compound 126395]	100 to 1000 nM	1000 to 5000 nM
CC1(C)CC(=O)C2=C(NC3=C(CN=N3)[C@]23CC[C@@H](C(F)(F)F)CC3)C1F (some centres not stated) [US20250313563, Compound 917135]	100 to 1000 nM	< 100 nM
CC(C)(C)CC1=C2C(N=N1)NC1=C(C(=O)CC(C)(C)C1)[C@@]21CCc2cc(F)ccc21 (some centres not stated) [US20250313563, Compound 782425]	100 to 1000 nM	100 to 1000 nM
CC[C@]1(c2cccc(C(F)(F)C(F)(F)F)c2)C2=CN=NC2NC2=C1C(=O)CC(C)(C)C2 (some centres not stated) [US20250313563, Compound 949103]	< 100 nM and 100 to 1000 nM	< 100 nM and 100 to 1000 nM
CC[C@@]1(c2ccccc2)C2=CN=NC2NC2=C1C(=O)C[C@H](C(F)(F)F)C2 (some centres not stated) [US20250313563, Compound 806608]	> 1670 nM	100 to 1000 nM
Cn1nccc1-c1cccc2c1CCC[C@@]21C2=CN=NC2NC2=C1C(=O)CC(C)(C)C2 (some centres not stated) [US20250313563, Compound 945551]	< 100 nM	< 100 nM
CC[C@@]1(c2cccc(C(F)(F)F)c2)C2=CN=NC2NC2=C1C(=O)C[C@H](C)C2 (some centres not stated) [US20250313563, Compound 810452]	1000 to 5000 nM	100 to 1000 nM
CC[C@@]1(c2cccc(Br)c2)C2=CN=NC2NC2=C1C(=O)[C@H](F)C(C)(C)C2 (some centres not stated) [US20250313563, Compound 835313]	> 5000 nM	> 5000 nM
CC1(C)CC(=O)C2=C(C1)NC1=C(CN=N1)[C@@]21CCO[C@@H](C(F)(F)F)C1 [US20250313563, Compound 884024]	> 5000 nM	1000 to 5000 nM
CC1(C)CC(=O)C2=C(NC3=C(CN=N3)[C@]23CC[C@@H](C(F)(F)F)CC3)[C@@H]1F [US20250313563, Compound 918284]	< 100 nM	< 100 nM
